Assay results published in patent US7550629B2, “Trifluoromethyl-containing phenylsulfonamide beta amyloid inhibitors” (Wyeth, priority 2006, dated 2009).

Tests used:
beta amyloid 42 = test: Aβ40/42 ELISA Assay: Aβ42; type: cell-based; conditions: Cricetulus griseus; CHO cells carrying the APP-REP-NL plasmid, 22 hours, sandwich ELISA of medium
Protocol: (§1) Pharmacology: Aβ40/42 ELISA Assay
(§2) Compounds are diluted from DMSO stocks to 2 μM and below in a cell culture medium. Compounds are then applied to CHO cells carrying the APP-REP-NL plasmid [Sudhir et. al, J. Biol. Chem. 267:25602-25608 (1992)] for a period of 22 hours. After the conditioning period, medium is collected, diluted in assay buffer containing protein, and samples, controls, and synthetic peptide standards are incubated on a prepared ELISA plate. Using a sandwich ELISA with antibodies specifically directed against the carboxyl terminus of beta amyloid 40 or 42 [analogous to the method reported by Haugabook et al., J. Neurosci. Methods 108:171-179 (2001) but using goat anti-mouse IgGl (source: Southern Biotech) as the anchor, 6E10 as the capture antibody (Source: SENETEK), rabbit antiαβ40 and antiαβB42 (source: QCB) and APL-donkey anti-rabbit IgG (H+L, source: Southern Biotech) as the detection antibody], the effect of the compound treatment on the cellular production of extracellular beta amyloid is quantified. Cells treated with compound are subsequently incubated in cell culture medium containing […]. After a short incubation period, MTS/medium containing plates are read in a spectrophotometer to determine the extent to which compound toxicity affected the cell's metabolism and ability to synthesize beta amyloid.
(§3) Test Samples: compound samples are supplied as 20 mM stock solutions in a 100% DMSO solution.
(§4) APP-REP-NL cells: Qualified cell lines are carried from week to week using 1:100 dilutions and are cultured in DMEM supplemented with 1× antibiotic/antimycotic, 200 μg/ml of G418 antibiotic, and 10% certified fetal calf serum. Cells are also banked in liquid nitrogen. Periodically, beta amyloid production is assessed, and cells are either kept in culture or replaced with progenitors at full expression.
(§5) Antibodies: Are from certified lots that have already been qualified in this assay. Antibodies are stored in small frozen aliquots at −80° C. that are thawed and used.
(§6) A compound is considered active if it has an EC50 for Aβ 40 reduction of <100 μM and no toxicity at doses in the vicinity the EC50.

beta amyloid 40 = test: Aβ40/42 ELISA Assay: Aβ40; type: cell-based; conditions: Cricetulus griseus; CHO cells carrying the APP-REP-NL plasmid, 22 hours, sandwich ELISA of medium
Protocol: as §1, §2, §3, §4, §5, §6

Row | EC50 (beta amyloid 42) [µM] | EC50 (beta amyloid 40) [µM] | Compound
1 | 0.177 | 0.22 | O=S(=O)(N[C@H](CO)C(C(F)(F)F)C(F)(F)F)c1ccc(Cl)cc1 [Example 1, 4-Chloro-N-[(1S)-3,3,3-trifluoro-1-(hydroxymethyl)-2-(trifluoromethyl)propyl]benzenesulfonamide]
2 | 13.8 | 9.94 | COc1cc(S(=O)(=O)NC(CO)C(C(F)(F)F)C(F)(F)F)ccc1Cl (stereo not shown) [Example 3, 4-Chloro-3-methoxy-N-(3,3,3-trifluoro-1-hydroxymethyl-2-trifluoromethyl-propyl)-benzenesulfonamide]
3 | 89.9 | 37.7 | O=S(=O)(NC(CO)C(C(F)(F)F)C(F)(F)F)c1ccc(Cl)c(C(F)(F)F)c1 (stereo not shown) [Example 4, 4-Chloro-N-(3,3,3-trifluoro-1-hydroxymethyl-2-trifluoromethyl-propyl)-3-trifluoromethyl-benzenesulfonamide]
4 | 76.9 | 46 | O=[N+]([O-])c1cc(S(=O)(=O)NC(CO)C(C(F)(F)F)C(F)(F)F)ccc1Cl (stereo not shown) [Example 5, 4-Chloro-3-nitro-N-(3,3,3-trifluoro-1-hydroxymethyl-2-trifluoromethyl-propyl)-benzenesulfonamide]
5 | 11.2 | 13.4 | CC(=O)c1cccc(S(=O)(=O)NC(CO)C(C(F)(F)F)C(F)(F)F)c1 (stereo not shown) [Example 6, 3-Acetyl-N-(3,3,3-trifluoro-1-hydroxymethyl-2-trifluoromethyl-propyl)-benzenesulfonamide]
6 | 4.02 | 4.46 | O=S(=O)(NC(CO)C(C(F)(F)F)C(F)(F)F)c1ccc(OC(F)F)cc1 (stereo not shown) [Example 7, 4-(difluoromethoxy)-N-[3,3,3-trifluoro-1-(hydroxymethyl)-2-(trifluoromethyl)propyl]benzenesulfonamide]
7 | – | 47.9 | O=S(=O)(NC(CO)C(C(F)(F)F)C(F)(F)F)c1cccc(OC(F)F)c1 (stereo not shown) [Example 8, 3-(difluoromethoxy)-N-[3,3,3-trifluoro-1-(hydroxymethyl)2-(trifluoromethyl)propyl]benzenesulfonamide]
8 | 6.75 | 7.2 | CCc1ccc(S(=O)(=O)NC(CO)C(C(F)(F)F)C(F)(F)F)cc1 (stereo not shown) [Example 9, 4-ethyl-N-[3,3,3-trifluoro-1-(hydroxymethyl)-2-(trifluoromethyl)propyl]benzenesulfonamide]
9 | 44.1 | 17.7 | CC(C)c1ccc(S(=O)(=O)NC(CO)C(C(F)(F)F)C(F)(F)F)cc1 (stereo not shown) [Example 10, 4-isopropyl-N-[3,3,3-trifluoro-1-(hydroxymethyl)-2-(trifluoromethyl)propyl]benzenesulfonamide]
10 | – | 24.1 | COc1cccc(S(=O)(=O)NC(CO)C(C(F)(F)F)C(F)(F)F)c1 (stereo not shown) [Example 12, 3-methoxy-N-[3,3,3-trifluoro-1-(hydroxymethyl)-2-(trifluoromethyl)propyl]benzenesulfonamide]
11 | – | 18 | CCCc1ccc(S(=O)(=O)NC(CO)C(C(F)(F)F)C(F)(F)F)cc1 (stereo not shown) [Example 13, 4-propyl-N-[3,3,3-trifluoro-1-(hydroxymethyl)-2-(trifluoromethyl)propyl]benzenesulfonamide]
12 | – | 28.1 | O=S(=O)(NC(CO)C(C(F)(F)F)C(F)(F)F)c1cccc(C(F)(F)F)c1 (stereo not shown) [Example 16, N-[3,3,3-trifluoro-1-(hydroxymethyl)-2-(trifluoromethyl)propyl]-3-(trifluoromethyl)benzenesulfonamide]
13 | – | 22.3 | CSc1cc(S(=O)(=O)NC(CO)C(C(F)(F)F)C(F)(F)F)ccc1Cl (stereo not shown) [Example 23, 4-Chloro-3-methylsulfanyl-N-(3,3,3-trifluoro-1-hydroxymethyl-2-trifluoromethyl-propyl)-benzenesulfonamide]
14 | – | 64 | O=S(=O)(NC(CO)C(C(F)(F)F)C(F)(F)F)c1cc(Cl)cc(Cl)c1 (stereo not shown) [Example 36, 3,5-dichloro-N-(3,3,3-trifluoro-1-hydroxymethyl-2-trifluoromethyl-propyl)-benzenesulfonamide]
